Laboratory results from the supplement of paper PMC9663587.

What was measured:
[1] = compound: CO[C@@H](C)Cn1c(=O)n(C)c2cnc3ccc(-c4cncc(C(C)(C)O)c4)cc3c21; assay: GR value, 72 h; higher = faster growth (1 = untreated, <0 = killing);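 note: breast cancer and non-malignant breast epithelial lines, nine half-log doses, viable cells counted by Hoechst and LIVE/DEAD dye imaging versus time-zero plates and DMSO controls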
[2] = compound: Cc1nc(Nc2ncc(C(=O)Nc3c(C)cccc3Cl)s2)cc(N2CCN(CCO)CC2)n1 [Dasatinib]; assay: as above
[3] = compound: NC1(C(=O)N[C@@H](CCO)c2ccc(Cl)cc2)CCN(c2nc[nH]c3nccc2-3)CC1 [AZD5363]; assay: as above
[4] = compound: COc1cc2nccc(Oc3ccc(NC(=O)C4(C(=O)Nc5ccc(F)cc5)CC4)cc3)c2cc1OC [Cabozantinib]; assay: as above
[5] = compound: CN(C)C/C=C/C(=O)Nc1ccc(O[C@@H]2CCC[C@@H](Nc3ncc(Cl)c(-c4c[nH]c5ccccc45)n3)C2)cc1 [BSJ-01-175]; assay: as above
[6] = compound: Nc1cc(C(F)(F)F)c(-c2cc(N3CCOCC3)nc(N3CCOCC3)n2)cn1 [Buparlisib/NVP-BKM120]; assay: as above
[7] = compound: CC(=O)Nc1cccc(-n2c(=O)n(C3CC3)c(=O)c3c(Nc4ccc(I)cc4F)n(C)c(=O)c(C)c32)c1; assay: as above
[8] = compound: Cc1nc(NC(=O)N2CCC[C@H]2C(N)=O)sc1-c1ccnc(C(C)(C)C(F)(F)F)c1 [Alpelisib/BYL719]; assay: as above
[9] = compound: CNC(=O)c1cccc(-c2ccc3c(N4CCOC[C@@H]4C)nc(N4CCOC[C@@H]4C)nc3n2)c1 [AZD2014]; assay: as above
[10] = compound: CS(=O)(=O)N1CCN(Cc2cc3nc(-c4cccc5[nH]ncc45)nc(N4CCOCC4)c3s2)CC1 [Pictilisib/GDC0941]; assay: as above
[11] = compound: COc1cccc2c1C(=O)c1c(O)c3c(c(O)c1C2=O)C[C@@](O)(C(=O)CO)C[C@@H]3O[C@H]1C[C@H](N)[C@H](O)[C@H](C)O1 [Doxorubicin]; assay: increase in dead-cell fraction, 72 h; higher = more death;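 note: breast cancer cell lines in 384-well plates, stained with Hoechst plus LIVE/DEAD far red dye and imaged, cells above an LDR intensity threshold counted dead, Hoechst-negative corpses included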
[12] = compound: CN1CCN(CCOc2cc(OC3CCOCC3)c3c(Nc4c(Cl)ccc5c4OCO5)ncnc3c2)CC1 [Saracatinib/AZD0530]; assay: as above

AU565 was tested, and the GR value ([1]; 0.001 µM) was 0.518 GR, the GR value ([1]; 0.003162 µM) was 0.487 GR and the GR value ([1]; 0.01 µM) was 0.464 GR. It also gave a GR value ([1]; 0.03162 µM) of 0.273 GR, a GR value ([1]; 0.1 µM) of 0.269 GR and a GR value ([1]; 0.3162 µM) of 0.0911 GR. It also gave a GR value ([1]; 1 µM) of 0.0661 GR, a GR value ([1]; 3.162 µM) of -0.0273 GR and a GR value ([1]; 10 µM) of -0.533 GR. For the same cell line, the GR value ([2]; 0.001 µM) was 0.873 GR, the GR value ([2]; 0.003162 µM) was 0.908 GR and the GR value ([2]; 0.01 µM) was 0.966 GR. For the same cell line, the GR value ([2]; 0.03162 µM) was 0.961 GR, the GR value ([2]; 0.1 µM) was 0.877 GR and the GR value ([2]; 0.3162 µM) was 0.963 GR. For the same cell line, the GR value ([2]; 1 µM) was 0.875 GR, the GR value ([2]; 3.162 µM) was 0.73 GR and the GR value ([2]; 10 µM) was 0.274 GR. It also gave a GR value ([3]; 0.001 µM) of 1.15 GR, a GR value ([3]; 0.003162 µM) of 0.991 GR and a GR value ([3]; 0.01 µM) of 0.884 GR. The GR value ([3]; 0.03162 µM) was 0.793 GR, the GR value ([3]; 0.1 µM) was 0.786 GR and the GR value ([3]; 0.3162 µM) was 0.717 GR. For the same cell line, the GR value ([3]; 1 µM) was 0.655 GR, the GR value ([3]; 3.162 µM) was 0.682 GR and the GR value ([3]; 10 µM) was 0.399 GR. It also gave a GR value ([4]; 0.001 µM) of 1.03 GR, a GR value ([4]; 0.003162 µM) of 1.04 GR and a GR value ([4]; 0.01 µM) of 1.03 GR. For the same cell line, the GR value ([4]; 0.03162 µM) was 1.06 GR, the GR value ([4]; 0.1 µM) was 1.06 GR and the GR value ([4]; 0.3162 µM) was 1.12 GR. It also gave a GR value ([4]; 1 µM) of 0.997 GR, a GR value ([4]; 3.162 µM) of 1.02 GR and a GR value ([4]; 10 µM) of 0.309 GR. For the same cell line, the GR value ([5]; 0.001 µM) was 0.954 GR, the GR value ([5]; 0.003162 µM) was 0.82 GR and the GR value ([5]; 0.01 µM) was 0.24 GR. The GR value ([5]; 0.03162 µM) was -0.144 GR, the GR value ([5]; 0.1 µM) was -0.164 GR and the GR value ([5]; 0.3162 µM) was -0.381 GR. For the same cell line, the GR value ([5]; 1 µM) was -0.45 GR, the GR value ([5]; 3.162 µM) was -0.505 GR and the GR value ([5]; 10 µM) was -0.777 GR. The GR value ([6]; 0.001 µM) was 1.05 GR, the GR value ([6]; 0.003162 µM) was 1.07 GR and the GR value ([6]; 0.01 µM) was 0.976 GR. For the same cell line, the GR value ([6]; 0.03162 µM) was 0.845 GR, the GR value ([6]; 0.1 µM) was 0.505 GR and the GR value ([6]; 0.3162 µM) was 0.186 GR. The GR value ([6]; 1 µM) was -0.365 GR, the GR value ([6]; 3.162 µM) was -0.533 GR and the GR value ([6]; 10 µM) was -0.494 GR. For the same cell line, the GR value ([7]; 0.0001 µM) was 1.05 GR, the GR value ([7]; 0.0003162 µM) was 0.96 GR and the GR value ([7]; 0.001 µM) was 1.08 GR. It also gave a GR value ([7]; 0.003162 µM) of 1.05 GR, a GR value ([7]; 0.01 µM) of 1.02 GR and a GR value ([7]; 0.03162 µM) of 0.968 GR. For the same cell line, the GR value ([7]; 0.1 µM) was 1.08 GR, the GR value ([7]; 0.3162 µM) was 1.02 GR and the GR value ([7]; 1 µM) was 1.01 GR. It also gave a GR value ([8]; 0.001 µM) of 0.962 GR, a GR value ([8]; 0.003162 µM) of 1.06 GR and a GR value ([8]; 0.01 µM) of 0.931 GR. It also gave a GR value ([8]; 0.03162 µM) of 0.762 GR, a GR value ([8]; 0.1 µM) of 0.621 GR and a GR value ([8]; 0.3162 µM) of 0.504 GR. For the same cell line, the GR value ([8]; 1 µM) was 0.215 GR, the GR value ([8]; 3.162 µM) was -0.0201 GR and the GR value ([8]; 10 µM) was -0.464 GR. For the same cell line, the GR value ([9]; 0.001 µM) was 0.592 GR, the GR value ([9]; 0.003162 µM) was 0.509 GR and the GR value ([9]; 0.01 µM) was 0.415 GR. For the same cell line, the GR value ([9]; 0.03162 µM) was 0.249 GR, the GR value ([9]; 0.1 µM) was 0.219 GR and the GR value ([9]; 0.3162 µM) was 0.149 GR. For the same cell line, the GR value ([9]; 1 µM) was 0.106 GR, the GR value ([9]; 3.162 µM) was -0.0159 GR and the GR value ([9]; 10 µM) was -0.0097 GR. It also gave a GR value ([10]; 0.001 µM) of 0.964 GR, a GR value ([10]; 0.003162 µM) of 0.961 GR and a GR value ([10]; 0.01 µM) of 0.898 GR. The GR value ([10]; 0.03162 µM) was 0.642 GR, the GR value ([10]; 0.1 µM) was 0.37 GR and the GR value ([10]; 0.3162 µM) was 0.101 GR. It also gave a GR value ([10]; 1 µM) of -0.096 GR, a GR value ([10]; 3.162 µM) of -0.251 GR and a GR value ([10]; 10 µM) of -0.391 GR. For the same cell line, the “increase in dead-cell fraction” value ([11]; 0.0003162 µM) was 0.0037, the “increase in dead-cell fraction” value ([11]; 0.001 µM) was 0.0029 and the “increase in dead-cell fraction” value ([11]; 0.003162 µM) was -0.0003. The “increase in dead-cell fraction” value ([11]; 0.01 µM) was -0.0009, the “increase in dead-cell fraction” value ([11]; 0.03162 µM) was 0.0192 and the “increase in dead-cell fraction” value ([11]; 0.1 µM) was 0.0682. For the same cell line, the “increase in dead-cell fraction” value ([11]; 0.3162 µM) was 0.138, the “increase in dead-cell fraction” value ([11]; 1 µM) was 0.199 and the “increase in dead-cell fraction” value ([11]; 3.162 µM) was 0.22. For the same cell line, the “increase in dead-cell fraction” value ([12]; 0.001 µM) was -0.003, the “increase in dead-cell fraction” value ([12]; 0.003162 µM) was 0.0003 and the “increase in dead-cell fraction” value ([12]; 0.01 µM) was 0.0038. For the same cell line, the “increase in dead-cell fraction” value ([12]; 0.03162 µM) was -0.0046, the “increase in dead-cell fraction” value ([12]; 0.1 µM) was -0.0038 and the “increase in dead-cell fraction” value ([12]; 0.3162 µM) was -0.0029. The “increase in dead-cell fraction” value ([12]; 1 µM) was 0.0012, the “increase in dead-cell fraction” value ([12]; 3.162 µM) was 0.0017 and the “increase in dead-cell fraction” value ([12]; 10 µM) was 0.0305.
